According to patent publication US20150291593A1, “NOVEL HETEROARYL AND HETEROCYCLE COMPOUNDS, COMPOSITIONS AND METHODS” (HUTCHISON MEDIPHARMA LIMITED, priority 2012, published 2015):

Experiments:
Type in all cases: biochemical
p110δ/p85α = biological target: T1, p110δ/p85α (Homo sapiens, UniProt O00329); experiment: Transcreener KINASE Assay, kinase inhibition of p110δ/p85α; details: for IC50: read-out: PI3Kδ IC50
T1 construct: purchased Invitrogen
Procedure: (§1) PI3K kinases including p110α/p85α, p110δ/p85α and p110γ are purchased from Invitrogen, and p110β/p85α is from Millipore.
(§2) Primary screening data and IC50 values are measured using Transcreener™ KINASE Assay (Bellbrook, Catalog #3003-10K). […] It is a universal, homogenous, high throughput screening (HTS) technology using a far-red, competitive fluorescence polarization immunoassay based on the detection of ADP to monitor the activity of enzymes that catalyze group transfer reactions. Briefly, the Transcreener KINASE Assay is designed as a simple two-part, endpoint assay.
(§3) In the first step, the 25 ul kinase reaction is performed by preparing a reaction mixture containing 5 ul test compound (2% DMSO final concentration), 10 ul kinase, buffer (50 mM HEPES, 100 mM NaCl, 1 mM EGTA, 0.03% CHAPS, 3 mM MgCl2, and freshly supplemented 1 mM DTT), and 10 ul 30 uM PIP2/10 uM ATP. The plate is sealed and incubated for 80 min at room temperature. Next, 25 ul ADP detection mix is added per well. The plate is sealed again and incubated for 60 min at room temperature, and then measure fluorescence polarization by Tecan Infinite F500 Reader.
(§4) Data is analyzed and IC50s are generated using the add-in software for Microsoft Excel, Xlfit™ (version 2.0). IH %=(ADP amount under 2% DMSO-ADP amount under test compound)/ADP amount under 2% DMSO.

p110β/p85α = biological target: T2, p110β/p85α (Homo sapiens, UniProt P42338); experiment: Transcreener KINASE Assay, kinase inhibition of p110β/p85α; details: for IC50: read-out: PI3Kβ IC50
T2 construct: purchased Millipore
Procedure: as §1, §2, §3, §4

p110γ = biological target: T3, p110γ (Homo sapiens, UniProt P48736); experiment: Transcreener KINASE Assay, kinase inhibition of p110γ; details: for IC50: read-out: PI3Kγ IC50
T3 construct: purchased Invitrogen
Procedure: PI3K kinases including p110α/p85α, p110δ/p85α and p110γ are purchased from Invitrogen, and p110β/p85α is from Millipore. Primary screening data and IC50 values are measured using Transcreener™ KINASE Assay (Bellbrook, Catalog #3003-10K). […] It is a universal, homogenous, high throughput screening (HTS) technology using a far-red, competitive fluorescence polarization immunoassay based on the detection of ADP to monitor the activity of enzymes that catalyze group transfer reactions. Briefly, the Transcreener KINASE Assay is designed as a simple two-part, endpoint assay. […] The plate is sealed and incubated for 80 min at room temperature. Next, 25 ul ADP detection mix is added per well. The plate is sealed again and incubated for 60 min at room temperature, and then measure fluorescence polarization by Tecan Infinite F500 Reader. Data is analyzed and IC50s are generated using the add-in software for Microsoft Excel, Xlfit™ (version 2.0).

T2 sequence (P42338 whole entry, species assumed): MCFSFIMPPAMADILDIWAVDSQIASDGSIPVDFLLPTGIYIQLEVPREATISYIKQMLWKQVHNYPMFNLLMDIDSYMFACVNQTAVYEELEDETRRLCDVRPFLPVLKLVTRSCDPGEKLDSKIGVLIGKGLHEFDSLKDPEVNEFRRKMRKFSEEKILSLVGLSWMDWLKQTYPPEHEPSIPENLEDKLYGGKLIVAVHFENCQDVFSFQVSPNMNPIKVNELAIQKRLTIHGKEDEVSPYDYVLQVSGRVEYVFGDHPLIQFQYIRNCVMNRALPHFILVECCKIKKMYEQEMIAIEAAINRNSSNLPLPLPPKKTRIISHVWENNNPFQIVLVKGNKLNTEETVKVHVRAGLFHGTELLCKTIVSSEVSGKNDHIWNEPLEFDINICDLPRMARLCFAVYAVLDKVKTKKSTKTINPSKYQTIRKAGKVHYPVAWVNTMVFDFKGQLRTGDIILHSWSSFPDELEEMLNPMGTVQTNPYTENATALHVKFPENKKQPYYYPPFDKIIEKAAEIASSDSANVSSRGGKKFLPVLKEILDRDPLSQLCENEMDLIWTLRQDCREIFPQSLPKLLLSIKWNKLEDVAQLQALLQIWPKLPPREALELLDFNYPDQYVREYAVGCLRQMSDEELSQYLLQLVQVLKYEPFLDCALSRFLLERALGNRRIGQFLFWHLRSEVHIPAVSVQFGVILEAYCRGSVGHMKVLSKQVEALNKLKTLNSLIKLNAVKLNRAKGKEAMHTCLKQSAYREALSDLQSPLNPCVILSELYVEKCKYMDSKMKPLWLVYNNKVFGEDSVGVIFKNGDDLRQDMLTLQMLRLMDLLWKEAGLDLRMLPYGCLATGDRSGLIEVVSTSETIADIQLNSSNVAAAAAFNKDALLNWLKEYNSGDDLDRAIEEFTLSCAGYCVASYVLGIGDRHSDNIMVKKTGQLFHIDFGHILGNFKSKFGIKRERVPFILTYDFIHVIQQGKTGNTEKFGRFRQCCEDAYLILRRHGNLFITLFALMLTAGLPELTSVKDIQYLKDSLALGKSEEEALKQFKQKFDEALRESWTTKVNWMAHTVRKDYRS
T2 sequence (P27986 whole entry partner, species assumed): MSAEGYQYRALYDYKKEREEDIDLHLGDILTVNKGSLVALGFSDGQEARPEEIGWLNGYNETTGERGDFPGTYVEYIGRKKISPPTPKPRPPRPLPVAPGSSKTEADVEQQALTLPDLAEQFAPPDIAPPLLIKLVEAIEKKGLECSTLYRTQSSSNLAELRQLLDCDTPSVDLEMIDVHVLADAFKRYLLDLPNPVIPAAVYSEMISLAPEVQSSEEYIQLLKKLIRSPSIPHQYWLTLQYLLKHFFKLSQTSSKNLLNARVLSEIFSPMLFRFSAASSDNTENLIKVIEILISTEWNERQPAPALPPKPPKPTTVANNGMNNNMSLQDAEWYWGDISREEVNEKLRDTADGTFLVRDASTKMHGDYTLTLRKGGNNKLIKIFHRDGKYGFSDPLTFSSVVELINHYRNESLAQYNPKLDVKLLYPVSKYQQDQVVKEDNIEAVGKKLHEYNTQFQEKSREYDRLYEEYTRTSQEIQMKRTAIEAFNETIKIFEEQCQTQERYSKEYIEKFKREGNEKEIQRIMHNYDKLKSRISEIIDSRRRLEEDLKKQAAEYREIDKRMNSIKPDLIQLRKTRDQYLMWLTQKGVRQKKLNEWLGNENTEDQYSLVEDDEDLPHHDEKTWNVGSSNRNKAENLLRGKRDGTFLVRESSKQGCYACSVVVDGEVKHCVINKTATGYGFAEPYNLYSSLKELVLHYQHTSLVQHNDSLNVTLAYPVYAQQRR
T3 sequence (P48736 whole entry, species assumed): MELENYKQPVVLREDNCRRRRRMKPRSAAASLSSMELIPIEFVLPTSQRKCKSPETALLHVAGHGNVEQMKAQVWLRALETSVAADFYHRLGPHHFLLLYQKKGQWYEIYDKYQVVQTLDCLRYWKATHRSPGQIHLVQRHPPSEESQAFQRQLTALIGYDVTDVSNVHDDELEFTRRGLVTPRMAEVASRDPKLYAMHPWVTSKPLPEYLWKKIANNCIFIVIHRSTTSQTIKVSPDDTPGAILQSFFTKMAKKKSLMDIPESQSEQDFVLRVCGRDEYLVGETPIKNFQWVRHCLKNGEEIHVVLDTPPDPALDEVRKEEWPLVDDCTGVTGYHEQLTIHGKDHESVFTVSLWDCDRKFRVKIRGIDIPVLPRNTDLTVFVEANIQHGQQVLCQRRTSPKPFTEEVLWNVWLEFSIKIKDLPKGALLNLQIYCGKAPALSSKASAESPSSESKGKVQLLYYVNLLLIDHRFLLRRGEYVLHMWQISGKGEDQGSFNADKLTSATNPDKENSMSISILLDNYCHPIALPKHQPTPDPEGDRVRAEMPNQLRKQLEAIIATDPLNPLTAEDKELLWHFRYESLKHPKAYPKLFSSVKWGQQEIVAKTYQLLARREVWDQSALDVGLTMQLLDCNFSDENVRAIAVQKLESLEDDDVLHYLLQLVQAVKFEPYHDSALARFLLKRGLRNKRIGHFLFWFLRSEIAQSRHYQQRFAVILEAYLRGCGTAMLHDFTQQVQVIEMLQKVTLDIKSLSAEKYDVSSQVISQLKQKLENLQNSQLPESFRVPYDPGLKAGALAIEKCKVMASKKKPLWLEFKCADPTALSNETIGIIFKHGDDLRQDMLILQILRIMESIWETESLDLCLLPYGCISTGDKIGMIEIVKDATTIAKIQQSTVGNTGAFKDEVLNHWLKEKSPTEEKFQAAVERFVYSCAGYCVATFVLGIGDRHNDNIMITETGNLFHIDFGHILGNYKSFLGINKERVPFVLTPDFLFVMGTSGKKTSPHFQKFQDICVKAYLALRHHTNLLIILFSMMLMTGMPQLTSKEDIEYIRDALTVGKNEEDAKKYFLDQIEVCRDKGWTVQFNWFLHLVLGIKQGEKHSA
T1 sequence (O00329 whole entry, species assumed): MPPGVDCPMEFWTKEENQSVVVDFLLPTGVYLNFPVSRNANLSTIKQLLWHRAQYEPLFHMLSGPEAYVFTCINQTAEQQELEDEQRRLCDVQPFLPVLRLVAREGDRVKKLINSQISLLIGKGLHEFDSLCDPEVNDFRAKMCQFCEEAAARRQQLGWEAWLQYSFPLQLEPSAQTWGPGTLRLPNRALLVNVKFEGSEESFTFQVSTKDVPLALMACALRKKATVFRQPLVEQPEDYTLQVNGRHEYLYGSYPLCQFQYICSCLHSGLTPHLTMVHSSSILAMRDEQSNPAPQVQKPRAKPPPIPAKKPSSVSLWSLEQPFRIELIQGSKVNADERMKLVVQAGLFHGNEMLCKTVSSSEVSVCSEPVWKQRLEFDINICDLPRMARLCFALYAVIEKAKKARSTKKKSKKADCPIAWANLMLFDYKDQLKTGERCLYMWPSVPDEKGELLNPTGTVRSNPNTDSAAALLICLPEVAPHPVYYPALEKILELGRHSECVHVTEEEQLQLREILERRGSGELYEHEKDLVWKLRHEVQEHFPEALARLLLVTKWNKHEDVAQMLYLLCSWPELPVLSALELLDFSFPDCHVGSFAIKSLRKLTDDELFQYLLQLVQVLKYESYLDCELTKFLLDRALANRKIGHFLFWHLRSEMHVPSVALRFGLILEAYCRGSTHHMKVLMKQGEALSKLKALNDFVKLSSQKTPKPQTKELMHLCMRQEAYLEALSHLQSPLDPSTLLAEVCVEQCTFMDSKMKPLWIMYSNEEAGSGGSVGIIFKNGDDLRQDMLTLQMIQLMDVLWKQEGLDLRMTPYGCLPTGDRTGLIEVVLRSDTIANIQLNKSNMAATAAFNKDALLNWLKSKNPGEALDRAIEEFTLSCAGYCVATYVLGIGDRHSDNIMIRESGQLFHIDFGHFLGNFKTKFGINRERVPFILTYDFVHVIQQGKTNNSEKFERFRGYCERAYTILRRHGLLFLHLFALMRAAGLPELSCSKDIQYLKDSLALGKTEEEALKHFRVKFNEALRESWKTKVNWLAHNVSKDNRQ
T1 sequence (P27986 whole entry partner, species assumed): as the sequence (P27986 whole entry partner, species assumed) above

CC(Nc1ncnc2[nH]cc(F)c12)c1cc2ncc(Cl)n2c(=O)n1-c1ccccc1 (single isomer, unassigned) [Compound 451]
IC50 (p110δ/p85α): 35 nM

CC(=O)c1cnc(N)nc1NC(C)c1cn2ccc(F)c2c(=O)n1-c1ccccc1 (single isomer, unassigned) [Compound 452]
IC50 (p110β/p85α): 13 nM
IC50 (p110δ/p85α): 0.3 nM
IC50 (p110γ): 1 nM

COc1cccc(-n2c([C@@H]3CCCN3c3ncnc4[nH]cc(C#N)c34)nn3cccc3c2=O)c1 [Compound 9]
PI3Kβ IH % @ 1 uM (p110β/p85α): 31.1%
PI3Kδ IH % @ 1 uM (p110δ/p85α): >100%
PI3Kγ IH % @ 1 uM (p110γ): 83.8%

Nc1nc(N2CCC[C@H]2c2nn3cccc3c(=O)n2-c2ccccc2)c2cc[nH]c2n1 [Compound 10]
PI3Kβ IH % @ 1 uM (p110β/p85α): 6.0%
PI3Kδ IH % @ 1 uM (p110δ/p85α): 60.4%
PI3Kγ IH % @ 1 uM (p110γ): 59.5%

Nc1nc(N2CCC[C@H]2c2nn3cccc3c(=O)n2-c2ccccc2)c2cn[nH]c2n1 [Compound 11]
PI3Kβ IH % @ 1 uM (p110β/p85α): −7.7%
PI3Kδ IH % @ 1 uM (p110δ/p85α): 22.9%
PI3Kγ IH % @ 1 uM (p110γ): 24.4%

O=c1c2cccn2nc([C@@H]2CCCN2c2ncnc3[nH]nc(Br)c23)n1-c1ccccc1 [Compound 12]
PI3Kβ IH % @ 1 uM (p110β/p85α): 23.1%
PI3Kδ IH % @ 1 uM (p110δ/p85α): 80.6%
IC50 (p110δ/p85α): 158 nM
PI3Kγ IH % @ 1 uM (p110γ): 27.9%

O=c1c2cccn2nc([C@@H]2CCCN2c2ncnc3[nH]cnc23)n1-c1cccc(F)c1 [Compound 13]
PI3Kβ IH % @ 1 uM (p110β/p85α): 18.0%
PI3Kδ IH % @ 1 uM (p110δ/p85α): 97.8%
PI3Kγ IH % @ 1 uM (p110γ): 71.9%
IC50 (p110γ): 477 nM

O=c1c2cccn2nc([C@@H]2CCCN2c2ncnc3[nH]cnc23)n1-c1ccc(F)cc1 [Compound 14]
PI3Kβ IH % @ 1 uM (p110β/p85α): 56.9%
PI3Kδ IH % @ 1 uM (p110δ/p85α): 90.7%
PI3Kγ IH % @ 1 uM (p110γ): 78.1%
IC50 (p110γ): 265 nM

N#Cc1c[nH]c2ncnc(N3CCC[C@H]3c3nn4cccc4c(=O)n3-c3cccc(F)c3)c12 [Compound 16]
PI3Kβ IH % @ 1 uM (p110β/p85α): 25.1%
PI3Kδ IH % @ 1 uM (p110δ/p85α): 100%
PI3Kγ IH % @ 1 uM (p110γ): 87.3%
IC50 (p110γ): 85 nM

O=c1c2cccn2nc([C@@H]2CCCN2c2ncnc3[nH]cnc23)n1-c1cccc(Cl)c1 [Compound 17]
PI3Kβ IH % @ 1 uM (p110β/p85α): 9.2%
PI3Kδ IH % @ 1 uM (p110δ/p85α): 100%
PI3Kγ IH % @ 1 uM (p110γ): 60.3%

Nc1ncnc(N2CCC[C@H]2c2nn3cccc3c(=O)n2-c2ccccc2)c1Cl [Compound 18]
PI3Kβ IH % @ 1 uM (p110β/p85α): 30.9%
PI3Kδ IH % @ 1 uM (p110δ/p85α): 100%
PI3Kγ IH % @ 1 uM (p110γ): 53.2%

COc1cccc(-n2c([C@@H]3CCCN3c3ncnc(N)c3C#N)nn3cccc3c2=O)c1 [Compound 19]
PI3Kβ IH % @ 1 uM (p110β/p85α): 24.0%
PI3Kδ IH % @ 1 uM (p110δ/p85α): 100%
PI3Kγ IH % @ 1 uM (p110γ): 75.7%
IC50 (p110γ): 287 nM

COc1cccc(-n2c([C@@H]3CCCC3c3ncnc4[nH]cnc34)nn3cccc3c2=O)c1 (some centres unmarked) [Compound 20]
PI3Kβ IH % @ 1 uM (p110β/p85α): 7.5%
PI3Kδ IH % @ 1 uM (p110δ/p85α): 97.4%
PI3Kγ IH % @ 1 uM (p110γ): 68.6%

COc1cccc(-n2c([C@@H]3CCCN3c3ncnc(N)c3Cl)nn3cccc3c2=O)c1 [Compound 21]
PI3Kβ IH % @ 1 uM (p110β/p85α): −1.3%
PI3Kδ IH % @ 1 uM (p110δ/p85α): 94.3%
PI3Kγ IH % @ 1 uM (p110γ): 30.4%

N#Cc1c[nH]c2ncnc(N3CCC[C@@H]3c3nn4cccc4c(=O)n3-c3ccccc3)c12 [Compound 22]
PI3Kβ IH % @ 1 uM (p110β/p85α): 8.9%
PI3Kδ IH % @ 1 uM (p110δ/p85α): 7.7%
PI3Kγ IH % @ 1 uM (p110γ): 21.2%

N#Cc1cccc(-n2c([C@@H]3CCCN3c3ncnc4[nH]cc(C#N)c34)nn3cccc3c2=O)c1 [Compound 23]
PI3Kβ IH % @ 1 uM (p110β/p85α): 36.9%
PI3Kδ IH % @ 1 uM (p110δ/p85α): 99.2%
PI3Kγ IH % @ 1 uM (p110γ): 81.9%
IC50 (p110γ): 273 nM

O=c1c2cccn2nc([C@H]2CCCN2c2ncnc3[nH]cnc23)n1-c1ccccc1 [Compound 24]
PI3Kβ IH % @ 1 uM (p110β/p85α): 8.3%
PI3Kδ IH % @ 1 uM (p110δ/p85α): 17.7%
PI3Kγ IH % @ 1 uM (p110γ): 14.1%

Cc1ccn2nc([C@@H]3CCCN3c3ncnc4[nH]cc(C#N)c34)n(-c3ccccc3)c(=O)c12 [Compound 42]
IC50 (p110δ/p85α): ~1 nM

N#Cc1c[nH]c2ncnc(N3C[C@H](O)C[C@H]3c3nn4ccc(Cl)c4c(=O)n3-c3ccccc3)c12 [Compound 70, 4-((2S,4R)-2-(5-chloro-4-oxo-3-phenyl-3,4-dihydropyrrolo[1,2-f][1,2,4]triazin-2-yl)-4-hydroxypyrrolidin-1-yl)-7H-pyrrolo[2,3-d]pyrimidine-5-carbonitrile]
PI3Kγ IH % @ 1 uM (p110γ): >100%

CC(Nc1ncnc2[nH]cnc12)c1cn2ccc(Cl)c2c(=O)n1-c1ccc(F)cc1 (centres unmarked) [Compound 78]
IC50 (p110β/p85α): 26 nM
IC50 (p110γ): 18 nM

CC(Nc1ncnc(N)c1C#N)c1cn2ccc(Cl)c2c(=O)n1-c1ccc(F)cc1 (centres unmarked) [Compound 79]
IC50 (p110β/p85α): 6 nM
PI3Kδ IH % @ 1 uM (p110δ/p85α): 99.0%

CC(Nc1ncnc2[nH]cnc12)c1cn2ccc(Cl)c2c(=O)n1-c1cc(F)cc(F)c1 (centres unmarked) [Compound 80]
PI3Kδ IH % @ 1 uM (p110δ/p85α): >100%
IC50 (p110δ/p85α): 7 nM
IC50 (p110γ): 46 nM

Nc1ncc(-c2c[nH]c3ncnc(N4CC[C@H]4c4nn5ccc(Cl)c5c(=O)n4-c4ccccc4)c23)cn1 [Compound 104]
IC50 (p110δ/p85α): < 0.5 nM

COc1ccc(-c2c(N)ncnc2N2CC[C@H]2c2nn3ccc(Cl)c3c(=O)n2-c2ccccc2)cn1 [Compound 108, (S)-2-(1-(6-amino-5-(6-methoxypyridin-3-yl)pyrimidin-4-yl)azetidin-2-yl)-5-chloro-3-phenylpyrrolo[1,2-f][1,2,4]triazin-4(3H)-one]
IC50 (p110δ/p85α): 97 nM
IC50 (p110γ): 199 nM

O=c1c2c(Cl)ccn2nc([C@@H]2CCCN2c2ncnc3[nH]ccc23)n1-c1ccccc1 [Compound 145]
PI3Kγ IH % @ 1 uM (p110γ): 100%

O=c1c2c(Cl)ccn2nc([C@@H]2COCCN2c2ncnc3[nH]cnc23)n1-c1ccccc1 [Compound 153]
IC50 (p110δ/p85α): 11 nM
IC50 (p110γ): 165 nM

N#Cc1c[nH]c2ncnc(N3C[C@@H](F)C[C@H]3c3nn4ccc(Cl)c4c(=O)n3Cc3ccccn3)c12 [Compound 158]
PI3Kγ IH % @ 1 uM (p110γ): 100%

COc1ncc(-c2c[nH]c3ncnc(N4CC[C@H]4c4nn5ccc(F)c5c(=O)n4-c4ccccc4)c23)cn1 [Compound 181]
IC50 (p110δ/p85α): < 0.46 nM

COc1ccc(-c2c[nH]c3ncnc(N4CC[C@H]4c4nn5ccc(F)c5c(=O)n4-c4ccccc4)c23)cn1 [Compound 182]
IC50 (p110δ/p85α): < 0.46 nM

Nc1ccc(-c2c[nH]c3ncnc(N4CC[C@H]4c4nn5ccc(F)c5c(=O)n4-c4ccccc4)c23)cn1 [Compound 183]
IC50 (p110δ/p85α): < 0.46 nM

C[S+]([O-])c1c[nH]c2ncnc(N3CCC[C@H]3c3nn4ccc(Cl)c4c(=O)n3-c3ccccc3)c12 (some centres unmarked) [Compound 187]
IC50 (p110β/p85α): 88 nM
IC50 (p110γ): 33 nM

O=c1c2c(Cl)ccn2nc([C@@H]2C[C@H](O)CN2c2ncnc3[nH]cnc23)n1-c1ccccc1 [Compound 262]
IC50 (p110δ/p85α): < 1 nM

Nc1ncc([N+](=O)[O-])c(N2CC[C@H]2c2nn3ccc(Cl)c3c(=O)n2-c2ccccc2)n1 [Compound 282]
IC50 (p110δ/p85α): 40 nM
IC50 (p110γ): 25 nM

CO/N=C(\C)c1c[nH]c2ncnc(N3CCC[C@H]3c3nn4ccc(Cl)c4c(=O)n3-c3ccccc3)c12 [Compound 308]
IC50 (p110δ/p85α): 21 nM
IC50 (p110γ): 37 nM

CC(O)c1cnc(N)nc1N1CC[C@H]1c1nn2ccc(Cl)c2c(=O)n1-c1ccccc1 (stereo partly drawn) [Compound 357, 2-((2S)-1-(2-amino-5-(1-hydroxyethyl)pyrimidin-4-yl)azetidin-2-yl)-5-chloro-3-phenylpyrrolo[2,1-f][1,2,4]triazin-4(3H)-one]
IC50 (p110δ/p85α): > 300 nM

C[S+]([O-])c1cnc(N)nc1N1CC[C@H]1c1nn2ccc(Cl)c2c(=O)n1-c1ccccc1 (some centres unmarked) [Compound 399]
PI3Kβ IH % @ 1 uM (p110β/p85α): 3.5%
